Reference: patent US20230398090A1, “METHOD OF TREATING CORONAVIRUS INFECTION BY ADMINISTRATION OF ETHYL MERCURY OR THIOL DERIVATIVE THEREOF” (BEECH TREE LABS, INC., priority 2020, published 2023)
Where two headings read alike, the source gives them in different places.

How the values were obtained:
[1] = tested on: pro-inflammatory cytokines; anti-inflammatory genes; conditions: genomic studies, no details given
coronavirus (SARS-CoV-2) = conditions: for time until all of the subject's symptoms resolved after initial treatment: 200 ng sublingual every 15 minutes for one hour, then hourly until bedtime
[2] = Example 4: person, after less than 48 hours of therapy

## C[CH2][Hg][S]c1ccccc1C(=O)[O-].[Na+] [thimerosal]
[1]
  effect on other anti-inflammatory genes: up-regulating
  effect on several pro-inflammatory cytokines: down-regulates
Coronavirus (SARS-CoV-2); Example 1: person, positive SARS-CoV-2 test, fever 104° F., shortness of breath, cough
  time until all of the subject's symptoms resolved after initial treatment: 20 to 24 h
Coronavirus (SARS-CoV-2); Example 2: person, symptoms of SARS-CoV-2 infection (fever 103° F., lethargy, shortness of breath, achiness)
  time until all of the subject's symptoms resolved after initial treatment: ≤ 24 h
Coronavirus (SARS-CoV-2); Example 3: person, 72 hours after initial treatment
  weakness: only partially improved
Coronavirus (SARS-CoV-2); Example 3: person, presumptive SARS-CoV-2 (fever, weakness, shortness of breath, cough), 200 ng sublingual, day 1 schedule, then six times daily on days two and three
  time until all of the subject's symptoms resolved after initial treatment (with the exception of weakness): 72 h
Coronavirus (SARS-CoV-2); [2]
  chest pain: not completely eliminated
  subject-reported energy, appetite and taste: increased energy, increased appetite and improved ability to taste
Coronavirus (SARS-CoV-2); Example 4: person, positive SARS-CoV-2 test (cough, mild fever, aching, decreased energy, stomach pain), 200 ng sublingual, day 1 schedule, then six times daily on day two
  time of therapy until subject reported diminution of all symptoms: less than 48 hours
